Laboratory results as given in patent US10278942B2 (PELOTON THERAPEUTICS, INC., priority 2015, dated 2019).
Read-outs that look alike come from different tables or passages of the source.

How the values were obtained:
786-O-Hif-Luc cells = assay: Luciferase Assay (HIF responsive elements reporter)
Method: A pool of infected cells were then selected against 2 μg/mL of puromycin (P8833, Sigma) for 10 days followed by limited dilution to select single clones. […] Each concentration was tested in triplicate. After about 24 hours, luciferase activity was determined using ONE-Glo Luciferase Assay Reagent (E6110, Promega) following the manufacturer's recommended procedure. EC50 were calculated using Dotmatics software.

[1] = target: T1, HIF-2α HIS TAG-PASB Domain (Homo sapiens, UniProt Q99814); assay: HIF-2α Scintillation Proximity Assay (SPA); format: binding
T1 construct: 100 nM HIF-2α HIS TAG-PASB Domain
Outline: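 IC50 values rest on percent inhibition, where the sample signal is scaled between high and low controls. Wells contain about 100 μL: compound dispensed as 2 μL of DMSO solution, 88 μL protein-probe mix and 10 μL of beads.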

[2] = read-out: Mean Luciferase EC50 (nM), 786-O-Hif-Luc cells
[3] = read-out: Mean Luciferase EC50 (nM)
[4] = read-out: Scintillation Proximity Assay IC50
[5] = Scintillation Proximity Assay IC50 (nM)

T1 sequence (Q99814 240-350 limits assumed): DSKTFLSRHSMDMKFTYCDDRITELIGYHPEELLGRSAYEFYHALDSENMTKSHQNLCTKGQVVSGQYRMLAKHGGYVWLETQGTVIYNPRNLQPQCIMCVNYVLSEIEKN

| Compound | EC50 (786-O-Hif-Luc cells; [2]) | EC50 (786-O-Hif-Luc cells; [3]) | also measured |
| --- | --- | --- | --- |
| N#Cc1cc(F)cc(Oc2ccc(S(N)(=O)=O)c3c2[C@@H](F)[C@@H](F)[C@H]3O)c1 [Compound 336] | 50 to 249 nM | – | – |
| [2H]C([2H])([2H])S(=O)(=O)c1ccc(Oc2cc(F)cc(C#N)c2)c2c1[C@]([2H])(O)C(F)(F)C2 [Compound 229] | – | < 50 nM | – |
| CS(=O)(=O)c1ccc(Oc2cc(F)cc(C#N)c2)c2c1C(O)C(F)C2 (stereo not drawn) [Compound 232] | – | < 50 nM | – |
| O=S1(=O)c2ccc(Oc3cc(F)cc(F)c3)c(C(F)F)c2C(O)C1F (stereo not drawn) [Compound 369] | 50 to 249 nM | – | – |
| N#Cc1cc(F)cc(Oc2ccc(S(=O)(=O)C(F)F)c3c2CC(F)(F)C3O)c1 (stereo not drawn) [Compound 11] | < 50 nM | – | – |
| N#Cc1cc(F)cc(Oc2ccc(S(=O)(=O)C(F)(F)F)c3c2CC[C@H]3O)c1 [Compound 57] | – | 50 to 249 nM | – |
| CCS(=O)(=O)c1ccc(Oc2cc(F)cc(C#N)c2)c2c1[C@H](O)C(F)(F)C2 [Compound 206] | – | 50 to 249 nM | – |
| CNS(=O)(=O)c1ccc(Oc2cc(F)cc(C#N)c2)c2c1[C@H](O)C(F)(F)C2 [Compound 254] | – | 50 to 249 nM | – |
| N#Cc1cc(F)cc(Oc2ccc(S(N)(=O)=O)c3c2[C@@H](F)C(F)(F)[C@H]3O)c1 [Compound 338] | – | < 50 nM | – |
| CS(=O)(=O)c1ccc(Oc2cc(F)cc(C#N)c2)c2c1[C@H](O)[C@H](F)C2 [Compound 231] | – | < 50 nM | – |
| CS(=O)(=O)c1ccc(Oc2cc(F)cc(C#N)c2)c2c1C(O)C(F)(F)C2 (stereo not drawn) [Compound 223] | – | 50 to 249 nM | – |
| CS(=O)(=O)c1ccc(Oc2cc(F)cc(C#N)c2)c2c1[C@H](O)[C@@H](F)C2 [Compound 271] | – | 250 to 1000 nM | – |
| N#Cc1cccc(Oc2ccc(S(=O)(=O)C(F)F)c(CO)c2Cl)c1 [Compound 43] | 250 to 1000 nM | – | – |
| N#Cc1cncc(Oc2ccc(S(=O)(=O)C(F)(F)F)c3c2CC(F)(F)[C@H]3O)c1 [Compound 235] | – | < 50 nM | – |
| CC(C)Oc1ccc2c(c1C#N)C(C)(O)C(F)(F)S2(=O)=O (stereo not drawn) [Compound 456] | > 1000 nM | – | – |
| Cn1cc(Oc2ccc(S(=O)(=O)C(F)(F)F)c3c2CC(F)(F)[C@H]3O)cn1 [Compound 224] | 50 to 249 nM | – | – |
| O=S(=O)(CF)c1ccc(Oc2cc(F)cc(Cl)c2)c2c1[C@H](O)CC2 [Compound 61] | 50 to 249 nM | – | – |
| N#Cc1cc(Cl)cc(Oc2ccc(S(=O)(=O)CF)c3c2CC(F)(F)[C@H]3O)c1 [Compound 167] | – | < 50 nM | – |
| O=S(=O)(c1ccc(Oc2ccc(F)c3[nH]ncc23)c2c1C(O)C(F)(F)C2)C(F)(F)F (stereo not drawn) [Compound 241] | 50 to 249 nM | – | – |
| CS(=O)(=O)c1ccc(Oc2cc(F)cc(C#N)c2)c2c1[C@H](O)[C@H](F)[C@H]2F [Compound 294] | 250 to 1000 nM | – | – |
| N#Cc1cccc(Oc2ccc(S(=O)(=O)C(F)F)c3c2CC[C@H]3O)c1 [Compound 156] | – | 250 to 1000 nM | – |
| CS(=O)(=O)c1ccc(Oc2cc(F)cc(C#N)c2)c2c1C(O)CC2 (stereo not drawn) [Compound 222] | > 1000 nM | – | – |
| O=S(=O)(c1ccc(Oc2ccc(F)c3[nH]ncc23)c2c1[C@H](O)C(F)(F)C2)C(F)(F)F [Compound 266] | < 50 nM | – | – |
| N#Cc1cc(F)cc(Oc2ccc(S(=O)(=O)C(F)F)c3c2CC(F)(F)[C@H]3O)c1 [Compound 15, 3-[(1S)-7-(difluoromethylsulfonyl)-2,2-difluoro-1-hydroxy-indan-4-yl]oxy-5-fluoro-benzonitrile] | < 50 nM | – | – |
| NS(=O)(=O)c1ccc(Oc2cc(F)cc(F)c2)c2c1[C@H](O)C(F)(F)C2 [Compound 256] | – | < 50 nM | – |
| C[C@H]1C[C@@H](O)c2c(S(=O)(=O)C(F)F)ccc(Oc3cc(F)cc(Cl)c3)c21 [Compound 7a] | – | 250 to 1000 nM | – |
| CS(=O)(=O)c1ccc(Oc2cc(F)cc(C#N)c2)c2c1[C@H](O)C(F)(F)C2 [Compound 163, (S)-3-((2,2-Difluoro-1-hydroxy-7-(methylsulfonyl)-2,3-dihydro-1H-inden-4-yl)oxy)-5-fluorobenzonitrile] | – | < 50 nM | – |

| Compound | EC50 (786-O-Hif-Luc cells; [2]) | EC50 (786-O-Hif-Luc cells; [3]) | also measured |
| --- | --- | --- | --- |
| [2H][C@]1(O)c2c(S(C)(=O)=O)ccc(Oc3cc(F)cc(C#N)c3)c2CC1(F)F [Compound 247] | – | < 50 nM | – |
| N#Cc1cc(F)cc(Oc2ccc(S(=O)(=O)CCl)c3c2CC(F)(F)[C@H]3O)c1 [Compound 215] | < 50 nM | – | – |
| CC1(C#N)CC(Oc2ccc(S(C)(=O)=O)c3c2[C@@H](F)C(F)(F)[C@H]3O)C1 (stereo partly drawn) [Compound 766] | 250 to 1000 nM | – | – |
| CS(=O)(=O)c1ccc(Oc2cc(F)cc(C#N)c2)c2c1[C@@H](O)C(F)(F)C2 [Compound 226] | – | > 1000 nM | – |
| N[C@@H]1c2c(ccc(Oc3cc(F)cc(Br)c3)c2Br)S(=O)(=O)C1(F)F [Compound 462] | 250 to 1000 nM | – | – |
| N#Cc1cc(F)cc(Oc2ccc(S(=O)(=O)C(F)F)c(CO)c2Cl)c1 [Compound 42] | 250 to 1000 nM | – | – |
| O=S(=O)(c1ccc(Oc2cncc(Cl)c2)c2c1[C@H](O)C(F)(F)C2)C(F)F [Compound 25] | < 50 nM | – | – |
| CS(=O)(=O)c1ccc(Oc2cc(F)cc(Cl)c2)c(C(F)F)c1CO [Compound 54] | 250 to 1000 nM | – | – |
| CNS(=O)(=O)c1ccc(Oc2cc(F)cc(F)c2)c2c1[C@H](O)C(F)(F)C2 [Compound 251] | – | 50 to 249 nM | – |
| O=[N+]([O-])c1ccc(Oc2cc(F)cc(Cl)c2)c2c1C(O)CC2 (stereo not drawn) [Compound 255] | > 1000 nM | – | – |
| N#Cc1cc(F)cc(Oc2ccc(S(N)(=O)=O)c3c2[C@H](F)C(F)(F)[C@H]3O)c1 [Compound 339] | – | 250 to 1000 nM | – |
| N#Cc1cc(F)cc(Oc2ccc(S(N)(=O)=O)c3c2CC(F)(F)[C@H]3O)c1 [Compound 252] | – | 50 to 249 nM | – |
| N#CC1(COc2ccc3c(c2C(F)F)C(O)C(F)(F)S3(=O)=O)CC1 (stereo not drawn) [Compound 455] | > 1000 nM | – | – |
| Cc1c(S(C)(=O)=O)ccc(Oc2cc(F)cc(Cl)c2)c1C#N [Compound 50] | > 1000 nM | – | – |
| N#Cc1cc(F)cc(Oc2ccc(S(=O)(=O)C(F)F)c3c2CC(F)(F)[C@@H]3O)c1 [Compound 237] | 50 to 249 nM | – | – |
| N#Cc1cc(F)cc(Oc2ccc(S(=O)(=O)C(F)(F)F)c3c2CC(F)(F)[C@H]3N)c1 [Compound 290] | – | 50 to 249 nM | – |
| O=S(=O)(c1ccc(Oc2cc(F)cc(Cl)c2)c2c1COC2O)C(F)F (stereo not drawn) [Compound 88] | – | – | IC50 [1, 4]: > 1000 nM |
| O=S1(=O)c2ccc(Oc3cc(F)cc(Cl)c3)c(C(F)F)c2C(O)C1(F)F (stereo not drawn) [Compound 364] | – | – | IC50 [1, 5]: < 50 nM |
| CS(=O)(=NC#N)c1ccc(Oc2cc(F)cc(C#N)c2)c2c1[C@H](O)C(F)(F)[C@H]2F (stereo partly drawn) [Compound 318] | – | – | IC50 [1, 4]: > 1000 nM |
| CC1(C)C(O)c2c(ccc(Oc3cc(F)cc(Cl)c3)c2Br)S1(=O)=O (stereo not drawn) [Compound 406] | – | – | IC50 [1, 5]: > 1000 nM |
| O=S(=O)(c1ccc(-c2ccccc2O)c2c1[C@H](O)C(F)(F)C2)C(F)(F)F [Compound 564] | – | – | IC50 [1, 4]: > 1000 nM |
| O=C1CC[C@H](Oc2ccc(S(=O)(=O)C(F)(F)F)c3c2CC(F)(F)[C@H]3O)CN1 [Compound 719] | – | – | IC50 [1, 4]: > 1000 nM |
| O=S(=O)(c1ccc(Oc2cc(F)cc(Cl)c2)c(CO)c1CO)C(F)F [Compound 87] | – | – | IC50 [1, 4]: > 1000 nM |
| CS(=O)(=O)c1ccc(Oc2cc(F)cc(C#N)c2)c2c1[C@H](O)CC2 [Compound 287] | 250 to 1000 nM | – | – |
| CS(=O)(=O)c1ccc(Oc2cc(F)cc(C#N)c2)c2c1[C@H](N)C(F)(F)C2 [Compound 165] | – | 50 to 249 nM | – |
| CS(=O)(=O)c1ccc(Oc2cc(F)cc(C#N)c2)c2c1[C@H](O)[C@H](F)[C@@H]2F [Compound 289, 3-[(1S,2S,3R)-2,3-difluoro-1-hydroxy-7-methylsulfonyl-indan-4-yl]oxy-5-fluoro-benzonitrile] | – | < 50 nM | – |
| O=C1CC[C@@H](Oc2ccc(S(=O)(=O)C(F)(F)F)c3c2CC(F)(F)[C@H]3O)CN1 [Compound 720] | – | – | IC50 [1, 4]: > 1000 nM |
